Results on 7 molecules are retold here after patent US20260182575A1, “MOLECULES HAVING PESTICIDAL UTILITY AND INTERMEDIATES AND PROCESSES RELATED THERETO” (CORTEVA AGRISCIENCE LLC, priority 2022, published 2026).

Holding throughout (format): in vivo
Experiment [1] concerns Fall Armyworm (Spodoptera frugiperda, LAPHFR, FAW). Nature of the experiment: Bioassay 4: fall armyworm, artificial diet, 128-cell tray. Conditions: AI alone. Summed up:
(§1)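 Test solutions (0.0000004–0.04% w/v, i.e. 0.00005–5 μg/cm² on diet) were pipetted onto artificial lepidopteran diet and one 2nd-instar larva was placed per cell, 8 replicates per species, held at ~26° C. Live larvae were counted after 5 days; percent control used Abbott's correction against a solvent check.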

Experiment [2] relates to Western Flower Thrips (Frankliniella occidentalis, FRANOC, WFT). Kind of experiment: Bioassay 3: western flower thrips, cotton leaf disc dip. Conditions: 3 days. Here is the method:
Stock solutions of F1 and various active ingredients were prepared initially at a concentration of 0.1 mg/mL using acetone as a diluent. Stock solutions were prepared with F1 as well as for each of the active ingredients individually. Test solutions were prepared from the stock solutions. Test solutions were prepared containing F1, the individual active ingredients, and mixtures of F1 with each of the active ingredients. The test solutions for F1 and the individual active ingredients were prepared by adding 500 μL of stock solution to a 25 mL glass vial, then adding 500 μL of acetone, followed by the addition of 9 mL water with 0.025% Tween® 20 to create a 0.0005% (w/v) solution. The test solutions containing mixtures of F1, and the individual active ingredients were prepared by adding 500 μL of the active ingredient stock solution to a 25 mL glass vial, followed by 500 μL of the F1 stock solution, then by the addition of 9 mL water with 0.025% Tween® 20 to create a test solution containing 0.0005% (w/v) F1 and 0.0005% (w/v) of the active ingredient. Each test solution was serially diluted to create desired doses of test solutions (0.0005% (w/v), 0.000125% (w/v), 0.00003125% (w/v), 0.0000078% (w/v), and 0.00000195% (w/v)).
The test solutions were tested against WFT using the following procedure: Leaf discs (2.7 cm in diameter) were cut from the true leaves of cotton plants. Leaf discs were dipped into the test solutions and shaken to ensure complete coverage of the leaf disc and then placed in Millipore® PetriSlides containing a filter paper disc. Treated leaf discs were air dried for approximately 1 hour. Each leaf disc was infested with 5 WFT (9-10-day old nymphs) by placement on each leaf disc, and the PetriSlides were capped to prevent escape. Each treatment was replicated three times and the test treatments were held at approximately 26° C. and ambient relative humidity (RH) prior to grading. Reference discs (solvent check) were treated with the diluent only. Evaluation was conducted by counting the number of live WFT under magnification 3 days after treatment. Percent control was measured using Abbott's correction formula (W. S. Abbott, J. Econ. Entomol. 18 (1925), pp. 265-267) as follows:
where X=No. of live nymphs on solvent check leaf discs and Y=No. of live nymphs on treated leaf discs. In Table B3 the “Expected % Control” was calculated using the method described in Colby S. R., Weeds, 1967, 15, 20-22. Bioassay 4: Corn Earworm (Helicoverpa zea, HELIZE, “CEW”), Fall Armyworm (Spodoptera frugiperda, LAPHFR, “FAW”), and Soybean Looper (Chrysodeixis includens, PSEPIN, “SBL”).

Experiment [3] has as its system Soybean Looper (Chrysodeixis includens, PSEPIN, SBL). Kind of experiment: Bioassay 4: soybean looper, artificial diet, 128-cell tray. Particulars: AI alone, 0.000004 wt %. In outline:
as §1

The subject of experiment [4] is Corn Earworm (Helicoverpa zea, HELIZE, CEW). Nature of the experiment: Bioassay 4: corn earworm, artificial diet, 128-cell tray. Particulars: AI alone. Summed up: as §1
Experiment [5] concerns Brown Planthopper (Nilaparvata lugens, NILALU, BPH). Nature of the experiment: Bioassay 6: brown planthopper, sprayed rice seedlings. Conditions: AI alone, AI Rate 0.049 g/ha, 6 days. As for the experimental part: At these rates, F1 and the individual active ingredients were tested at a ratio of 1:1. […] F1 and triflumezopyrim were tested at a ratio of 16:1. Test solutions were prepared containing F1, the individual active ingredients, and mixtures of F1 with each of the active ingredients. Test solutions were prepared by weighing 5 mg of each test chemistry (either alone or in combination depending on the treatment) into a 25 mL glass vial. Next, 1 mL of acetone was added to each vial to dissolve the test chemistries, followed by 19 mL of water with 0.125% Tween 20 adjuvant. This test solution represented the 50 g/ha treatment, which was then serially diluted four-fold to create the three lower rates of 12.5, 3.125, and 0.78 g/ha. Triflumezopyrim was prepared in a similar manner, but two additional serial dilutions were conducted to create solutions representing 6 rates of 12.5, 3.125, 0.78, 0.19, 0.049, and 0.012 g/ha. The higher two doses were discarded, and the four lower doses were used for testing. Each rate was replicated four times, and solvent blanks were used as control treatments.
Five (5) rice seedlings (10-12 days old) planted in 3-inch pots were used as test plants. Rice seedlings were grown in soil and the soil was covered with a 2% agar solution. The test solutions were applied to test plants using a Devries laboratory research sprayer, set to spray at 200 liters per hectare (L/ha) using a TeeJet hollow cone nozzle. Following application, the rice seedlings were dried for 1 hour, after which a single clear plastic tube (2 inches in diameter×12 inches in height) was placed over the seedlings in each pot. The tube was pushed down into the agar to create a sealed test chamber. The agar prevented insects from hiding in the soil and made adult collection and grading easier. Ten to fifteen (10-15) 5th instar BPH nymphs were transferred to each test chamber using a vacuum aspirator. Immediately following BPH infestation, the test chamber was covered with a piece of grade 90 cheesecloth and secured with a rubber band, sealing the test chamber. The test chambers were held at 25° C. for 6 days, after which the total number of live insects was counted in each test chamber. Percent control was measured using Abbott's correction formula (W. S. Abbott, J. Econ. Entomol. 18 (1925), pp. 265-267) as follows:
where X=No. of live insects on solvent check and Y=No. of live insects in treated chambers. In Table B6 the “Expected % Control” was calculated using the method described in Colby S. R., Weeds, 1967, 15, 20-22. Bioassay 7: Corn Earworm (Helicoverpa zea, HELIZE, “CEW”), Fall Armyworm (Spodoptera frugiperda, LAPHFR, “FAW”), Beet Armyworm (Spodoptera exigua, LAPHEG, “BAW”),and Soybean Looper (Chrysodeixis includens, PSEPIN, “SBL”).

In experiment [6] the test system is Western Corn Rootworm (Diabrotica virgifera virgifera, DIABVI, WCR). Nature of the experiment: Bioassay 8: western corn rootworm, soil drench, corn root protection. Conditions: AI alone, DIABVI, soil drench, 13 days. As for the experimental part:
Corn seeds were planted in steam pasteurized soil filled greenhouse pots. Western corn rootworm Diabrotica virgifera virgifera eggs supplied from the Corteva Agriscience in Johnston, IA US, were suspended in a 0.08% agar solution added into the soil. Stock solutions of F1 and active ingredients were prepared at a concentration of either 250 or 500 ugai/10 mL for F1 and active ingredients at the ratios of (F1:AI) 1:0.004; 1:0.01; 1:0.02; 1:0.04; 1:0.08; 1:0.1; 1:0.15; 1:0.2; 1:0.4; 1:2; or 1:4, using a 1:1 solution of acetone:water as a diluent. A soil application of solutions were applied as a 10 mL drench over the soil. Plants were grown in the greenhouse for 13 days at 25 C after which the roots were removed from the soil, washed, and measured to determine the length of the median nodal roots. The measured lengths were compared to the infested and un-infested untreated checks to determine the mean percent control offered to protect the corn roots.

For experiment [7], the system named is Fall Armyworm (Spodoptera frugiperda, LAPHFR, FAW). Kind of experiment: Bioassay 7: fall armyworm, artificial diet, 96 well plate. Here is the method: (§2) The test solutions were tested against CEW, FAW, BAW, and SBL using the following procedure: an artificial lepidopteran diet (Multispecies Lepidopteran Diet, Southland Products) was distributed in 96 well plate. Twenty μL of test solution was pipetted onto a cell in the bioassay plate. […] Each treatment was replicated 5 times for each species. Approximately five first instar CEW, FAW, BAW, or SBL larva were placed on top of the diet in each cell and was contained with a clear perforated adhesive lid. Test trays were held at approximately 25° C. and ambient relative humidity prior to grading. After five days, the number of cells where all the larvae were dead were recorded as 100% and averaged across all replicates; then the percent control was measured using Abbott's correction formula (W. S. Abbott, J. Econ. Entomol. 18 (1925), pp. 265-267) as follows:
(§3) where X=No. of live larvae on solvent check and Y=No. of live larvae on treated diet. In Table 7 the “Expected % Control” was calculated using the method described in Colby S. R., Weeds, 1967, 15, 20-22. Bioassay 8: Western Corn Rootworm (Diabrotica virgifera virgifera, DIABVI, “WCR”)

For experiment [8], the system named is Corn Earworm (Helicoverpa zea, HELIZE, CEW). Kind of experiment: Bioassay 7: corn earworm, artificial diet, 96 well plate. Conditions: AI alone at 0.4 wt %.
Experiment [9] has as its system Soybean Looper (Chrysodeixis includens, PSEPIN, SBL). Nature of the experiment: Bioassay 7: soybean looper, artificial diet, 96 well plate. Particulars: CL; AI alone at 0.4 wt %. As for the experimental part: as §2, §3
Experiment [10] relates to Beet Armyworm (Spodoptera exigua, LAPHEG, BAW). Nature of the experiment: Bioassay 7: beet armyworm, artificial diet, 96 well plate. Conditions: AI alone at 0.4 wt %.

As for `CCN(C(=O)CCS(C)(=O)=O)c1sc(-c2cccnc2)nc1Cl` [AI-1, N-(4-chloro-2-(pyridin-3-yl)thiazol-5-yl)-N-ethyl-3-(methylsulfonyl)propanamide], the “Average % Control AI” value was 0.0% in [1] (0.000004 wt %); 9.5% in experiment [2] (AI alone at 1:1 rate to F1 0.78 (10^-6 Wt %)); 12.5% in experiment [3]; 0.0% in [4] (0.000004 wt %); 0.0% in experiment [4] (0.00004 wt %); 0.0% in [5].

For the molecule `CC1(C)[C@H](C(=O)O[C@H](C#N)c2cccc(Oc3ccccc3)c2)[C@@H]1C=C(Br)Br` [Deltamethrin], the “Average % Control AI” value in experiment [6] (UgActive AI 1) was 17.0%; in experiment [7] (AI alone at 0.004 wt %), 0.0%.

Consider `Cn1cc(C(=O)Nc2ccccc2C2CC2C2CC2)c(C(F)F)n1` (stereo not drawn) [Sedaxane], for which the “Average % Control AI” value in [8], in experiment [6] (UgActive AI 10), in [9], in experiment [10] and in experiment [7] (AI alone at 0.4 wt %) was 0.0% throughout.

Abamectin: the “Average % Control AI” value in [1] (0.00004 wt %) is recorded as 0.0%; in experiment [2] (AI alone at 1:1 rate to F1 3.125 (10^-6 Wt %)) it was 31.0%; in experiment [4] (0.000004 wt %), 0.0%; in experiment [4] (0.00004 wt %), 0.0%; in experiment [5], 40.7%.

For the molecule Inpyrfluxam, the “Average % Control AI” value in [8] is recorded as 12.5%; in [6] (UgActive AI 1), 0.0%; in experiment [9] it was 0.0%; in experiment [7] (AI alone at 0.4 wt %), 0.0%.

On to Spinetoram, for which the “Average % Control AI” value was 0.0% in experiment [1] (0.000004 wt %); 25.0% in [3]; 0.0% in [4] (0.000004 wt %); 25.0% in [4] (0.00004 wt %); 2.5% in experiment [5].

In the case of Thiabendazole, the “Average % Control AI” value in [8] was found to be 0.0%; in [6] (UgActive AI 50), 16.8%; in experiment [10], 0.0%.
